By IC50 is commonly meant the concentration that inhibits the measured activity by half.

13 molecules from patent US20100256104A1, “NOVEL AMIDE COMPOUNDS” (ASTRAZENECA R&D, priority 2009, published 2010) can be followed below.

Structures are written as SMILES.

The target in the assay is T1, recombinant human GR (Homo sapiens, UniProt P04150).
T1 construct: purchased Panvera/Invitrogen P2812 (kit P2893)
T1 sequence (P04150 1-777): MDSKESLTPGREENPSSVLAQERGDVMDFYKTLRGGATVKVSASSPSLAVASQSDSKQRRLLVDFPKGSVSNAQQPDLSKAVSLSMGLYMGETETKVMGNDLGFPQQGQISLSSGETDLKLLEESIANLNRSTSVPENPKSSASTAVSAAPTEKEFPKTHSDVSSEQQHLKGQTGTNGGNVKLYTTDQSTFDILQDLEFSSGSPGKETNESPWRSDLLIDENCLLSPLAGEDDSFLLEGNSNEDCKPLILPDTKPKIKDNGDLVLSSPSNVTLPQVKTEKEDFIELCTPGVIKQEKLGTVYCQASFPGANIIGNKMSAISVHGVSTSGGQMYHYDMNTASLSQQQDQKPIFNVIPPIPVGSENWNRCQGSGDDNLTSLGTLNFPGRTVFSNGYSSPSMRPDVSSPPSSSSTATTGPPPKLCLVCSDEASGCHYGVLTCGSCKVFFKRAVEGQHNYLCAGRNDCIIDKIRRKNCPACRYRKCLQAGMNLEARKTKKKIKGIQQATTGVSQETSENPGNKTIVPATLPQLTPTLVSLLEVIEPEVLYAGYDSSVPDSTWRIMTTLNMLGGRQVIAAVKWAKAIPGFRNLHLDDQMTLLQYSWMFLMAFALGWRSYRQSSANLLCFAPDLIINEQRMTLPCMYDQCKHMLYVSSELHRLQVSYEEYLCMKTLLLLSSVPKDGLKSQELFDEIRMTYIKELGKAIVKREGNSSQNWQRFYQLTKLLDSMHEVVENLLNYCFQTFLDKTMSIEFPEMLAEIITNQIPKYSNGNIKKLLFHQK
The assay can be described thus: Human Glucocorticoid Receptor (GR) Assay, fluorescence polarization competition with GS Red tracer. Particulars: 2 hours at room temperature, 100% control 10 μM Dexamethasone, XLfit model 205, read-out: Inhibition of GR binding, IC50. The method, boiled down: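 Fluorescence polarization competition: recombinant human GR with GS Red tracer, stabilizing peptide and DTT in potassium phosphate/sodium molybdate/EDTA buffer. 2 h in dark at room temperature, read at ex 530/em 590 nm. Controls: DMSO (0%) and 10 μM dexamethasone (100%).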

`CCC(=O)O[C@]1(C(=O)SCCO)CC[C@H]2[C@@H]3CCC4=Cc5c(cnn5-c5cccc(C(=O)N6CCC[C@@H]6C(N)=O)c5)C[C@]4(C)[C@@]3(F)[C@@H](O)C[C@@]21C` [Example 58, (1R,3aS,3bS,10aS, 10bR,11S,12aS)-7-(3-{[(2R)-2-carbamoyl-pyrrolidin-1-yl]carbonyl}phenyl)-10b-fluoro-11-hydroxy-1-{[(2-hydroxyethyl)sulfanyl]carbonyl}-10a,12a-dimethyl-1,2,3,3a,3b,4,5,7,10, 10a,10b,11,12,12a-tetradecahydrocyclo-penta[5,6]naphtho [1,2-f]indazol-1-yl propanoate]: the IC50 turned out to be 6.9 nM.

In the case of `CCC(=O)O[C@]1(C(=O)SCF)CC[C@H]2[C@@H]3CCC4=Cc5c(cnn5-c5cccc(C(=O)NCC(N)=O)c5)C[C@]4(C)[C@H]3[C@@H](O)C[C@@]21C` [Example 18, (1R,3aS,3bS,10aR,10bS,11S, 12aS)-7-{3-[(2-amino-2-oxoethyl)carbamoyl]phenyl}-1-{[(fluoromethyl)sulfanyl]carbonyl}-11-hydroxy-10a, 12a-dimethyl-1,2,3,3a,3b,4,5,7,10,10a,10b,11,12,12a-tetradecahydrocyclopenta[5,6] naphtho[1,2-f]indazol-1-yl propanoate], the IC50 stood at 1.4 nM.

Take `C[C@]12Cc3cnn(-c4cccc(C(=O)N5CCC[C@@H]5C(N)=O)c4)c3C=C1CC[C@H]1[C@@H]3CC[C@](OC(=O)C4CC4)(C(=O)SCF)[C@@]3(C)C[C@H](O)[C@@]12F` [Example 55, (1R,3aS,3bS,10aS, 10bR,11S,12aS)-7-(3-{[(2R)-2-carbamoyl-pyrrolidin-1-yl]carbonyl}phenyl)-10b-fluoro-1-{[(fluoromethyl)sulfanyl]carbonyl}-11-hydroxy-10a,12a-dimethyl-1,2,3,3a,3b,4,5,7,10, 10a,10b,11,12,12a-tetradecahydrocyclo-penta[5,6]naphtho [1,2-f]indazol-1-yl cyclopropanecarboxylate]: the IC50 was 3.5 nM.

Turning to `CCC(=O)O[C@]1(C(=O)SCF)CC[C@H]2[C@@H]3CCC4=Cc5c(cnn5-c5cccc(C(=O)N[C@@H](C)C(N)=O)c5)C[C@]4(C)[C@@]3(F)[C@@H](O)C[C@@]21C` [Example 35, (1R,3aS,3bS,10aS, 10bR,11S,12aS)-7-(3-{[(1S)-2-amino-1-methyl-2-oxoethyl]carbamoyl}phenyl)-10b-fluoro-1-{[(fluoromethyl)sulfanyl]carbonyl}-11-hydroxy-10a,12a-dimethyl-1,2,3,3a,3b,4,5,7,10,10a, 10b,11,12,12a-tetradecahydrocyclo-penta[5,6]naphtho [1,2-f]indazol-1-yl propanoate], the IC50 is 6.5 nM.

As for `COCC(=O)O[C@]1(C(=O)SCF)CC[C@H]2[C@@H]3CCC4=Cc5c(cnn5-c5cccc(C(=O)NCC(N)=O)c5)C[C@]4(C)[C@@]3(F)[C@@H](O)C[C@@]21C` [Example 17, (1R,3aS,3bS,10aS,10bR,11S, 12aS)-7-{3-[(2-amino-2-oxoethyl)carbamoyl]-phenyl}-10b-fluoro-1-{[(fluoromethyl)sulfanyl]carbonyl}-11-hydroxy-10a,12a-dimethyl-1,2,3,3a,3b,4,5,7,10,10a,10b, 11,12,12a-tetradecahydro-cyclopenta[5,6]naphtho[1,2-f] indazol-1-yl methoxyacetate], the 50% inhibitory concentration (IC50) is 3 nM.

Take `CCC(=O)O[C@]1(C(=O)SCF)[C@H](C)C[C@H]2[C@@H]3CCC4=Cc5c(cnn5-c5cccc(C(=O)N[C@@H](C)C(N)=O)c5)C[C@]4(C)[C@@]3(F)[C@@H](O)C[C@@]21C` [Example 25, (1R,2R,3aS,3bS, 10aS,10bR,11S,12aS)-7-(3-{[(1S)-2-amino-1-methyl-2-oxoethyl]carbamoyl}phenyl)-10b-fluoro-1-{[(fluoromethyl)-sulfanyl]carbonyl}-11-hydroxy-2,10a,12a-trimethyl-1,2,3,3a,3b,4,5,7,10, 10a,10b,11,12,12a-tetradecahydrocyclo-penta[5,6]naphtho [1,2-f]indazol-1-yl propanoate]: the IC50 is 2.8 nM.

`CCC(=O)O[C@]1(C(=O)SCF)CC[C@H]2[C@@H]3CCC4=Cc5c(cnn5-c5cccc(C(=O)N6CCC[C@@H]6C(N)=O)c5)C[C@]4(C)[C@@]3(F)[C@@H](O)C[C@@]21C` [Example 61, (1R,3aS,3bS,10aS, 10bR,11S,12aS)-7-(3-{[(2R)-2-carbamoyl-pyrrolidin-1-yl]carbonyl}phenyl)-10b-fluoro-1-{[(fluoromethyl)sulfanyl]carbonyl}-11-hydroxy-10a,12a-dimethyl-1,2,3,3a,3b,4,5,7,10, 10a,10b,11,12,12a-tetradecahydrocyclo-penta[5,6]naphtho [1,2-f]indazol-1-yl propanoate]: the IC50 stood at 3.6 nM.

`CCC(=O)O[C@]1(C(=O)SCF)CC[C@H]2[C@@H]3C[C@H](C)C4=Cc5c(cnn5-c5cccc(C(=O)N[C@H](C)C(N)=O)c5)C[C@]4(C)[C@H]3[C@@H](O)C[C@@]21C` [Example 24, (1R,3aS,3bS,5S,10aR, 10bS,11S,12aS)-7-(3-{[(1R)-2-amino-1-methyl-2-oxoethyl]carbamoyl}phenyl)-1-{[(fluoromethyl)sulfanyl]carbonyl}-11-hydroxy-5,10a,12a-trimethyl-1,2,3,3a,3b,4,5,7,10, 10a,10b,11,12,12a-tetradecahydrocyclo-penta[5,6]naphtho [1,2-f]indazol-1-yl propanoate]: the IC50 came to 2.1 nM.

In the case of `COCC(=O)O[C@]1(C(=O)SCC#N)CC[C@H]2[C@@H]3CCC4=Cc5c(cnn5-c5cccc(C(=O)NCc6cccnc6)c5)C[C@]4(C)[C@H]3[C@@H](O)C[C@@]21C` [Example 52, (1R,3aS,3bS,10aR, 10bS,11S,12aS)-1-{[(cyanomethyl)sulfanyl]carbonyl}-11-hydroxy-10a,12a-dimethyl-7-{3-[(pyridin-3-ylmethyl)carbamoyl]phenyl}-1,2,3,3a,3b,4,5,7,10, 10a,10b,11,12,12a-tetradecahydrocyclo-penta[5,6]naphtho [1,2-f]indazol-1-yl methoxyacetate], the IC50 was 1.5 nM.

For `CCC(=O)O[C@]1(C(=O)SCC#N)CC[C@H]2[C@@H]3CCC4=Cc5c(cnn5-c5cccc(C(=O)NCCOC)c5)C[C@]4(C)[C@H]3[C@@H](O)C[C@@]21C` [Example 1, (1R,3aS,3bS,10aR,10bS,11S,12aS)-1-{[(Cyanomethyl)sulfanyl]carbonyl}-11-hydroxy-7-{3-[(2-methoxyethyl)carbamoyl]phenyl}-10a,12a-dimethyl-1,2,3,3a,3b,4,5,7,10,10a,10b,11,12,12a-tetradecahydrocyclopenta[5,6]naphtho[1,2-f]indazol-1-yl propanoate], the IC50 came out at 1 nM.

On to `CCC(=O)O[C@]1(C(=O)SCC#N)CC[C@H]2[C@@H]3CCC4=Cc5c(cnn5-c5cccc(C(=O)N6CCC[C@@H]6C(N)=O)c5)C[C@]4(C)[C@H]3[C@@H](O)C[C@@]21C` [Example 14, (1R,3aS,3bS,10aR,10bS,11S,12aS)-7-(3-{[(2R)-2-Carbamoylpyrrolidin-1-yl]carbonyl}phenyl)-1-{[(cyanomethyl)sulfanyl]carbonyl}-11-hydroxy-10a,12a-dimethyl-1,2,3,3a,3b,4,5,7,10,10a,10b,11,12,12a-tetradecahydrocyclopenta[5,6]naphtho[1,2-f]indazol-1-yl propanoate], for which the IC50 is 6 nM.

`CCC(=O)O[C@]1(C(=O)SCCO)CC[C@H]2[C@@H]3CCC4=Cc5c(cnn5-c5cccc(C(=O)N6CCC[C@@H]6C(N)=O)c5)C[C@]4(C)[C@H]3[C@@H](O)C[C@@]21C` [Example 48, (1R,3aS,3bS,10aR, 10bS,11S,12aS)-7-(3-{[(2R)-2-carbamoyl-pyrrolidin-1-yl]carbonyl}phenyl)-11-hydroxy-1-{[(2-hydroxyethyl)sulfanyl]carbonyl}-10a,12a-dimethyl-1,2,3,3a,3b,4,5,7,10, 10a,10b,11,12,12a-tetradecahydrocyclo-penta[5,6]naphtho [1,2-f]indazol-1-yl propanoate]: the IC50 turned out to be 6.3 nM.

`CCC(=O)O[C@]1(C(=O)SCF)CC[C@H]2[C@@H]3CCC4=Cc5c(cnn5-c5cccc(C(=O)N6CCC[C@@H]6C(N)=O)c5)C[C@]4(C)[C@H]3[C@@H](O)C[C@@]21C` [Example 13, (1R,3aS,3bS,10aR,10bS,11S,12aS)-7-(3-{[(2R)-2-Carbamoylpyrrolidin-1-yl]carbonyl}phenyl)-1-{[(fluoromethyl)sulfanyl]carbonyl}-11-hydroxy-10a,12a-dimethyl-1,2,3,3a,3b,4,5,7,10,10a,10b,11,12,12a-tetradecahydrocyclopenta[5,6]naphtho[1,2-f]indazol-1-yl propanoate]: the IC50 came to 2.5 nM.
